From patent publication US20140348880A1, “Ortho-Aminothiophenol Compounds and Uses Thereof” (Cape Breton University, priority 2013, published 2014)

Assays:
Bacillus cereus = assay: In vitro disc diffusion assay, ZOI (Example 3); format: cell-based; conditions: 6 mm diameter discs; for Zone of Inhibition: Bacillus cereus; for ZOI: B. cereus
Method: (§1) Sterile assay discs (6 mm diameter) were obtained from VWR Whatman and antibiotic assay discs (6 mm diameter) containing getamicin (10 μg/disc) and the combination drug sulfamethoxazole 23.75 μg/disc and trimethoprim 1.25 μg/disc were obtained from Becton, Dickinson and Company (USA). Dimethyl sulfoxide (DMSO) for microbial experiments was BioReagent™ grade and was purchased from Sigma-Aldrich. The nutrient broth and Müller-Hinton agar was purchased from Becton, Dickinson and Company (USA). Bacillus cereus, Pseudomonas aeruginosa (#27853), Klebsiella pneumonia (#13883), Proteus vulgaris (#13315), Staphylococcus aureus (#25923) and Escherichia coli (#25922) strains were obtained from the American Type Culture Collection (ATCC). All materials in contact with antimicrobial matter was treated for 40 min at 121° C. and 20 psi in a biohazard autoclave bag prior to waste disposing or washing. McFarland turbity standards containing barium sulfate were obtained from bioMérieux.
(§2) The growth medium was prepared by addition of Müller-Hinton agar (38 g) to 1 L distilled water under vigorous stirring and boiled for 10 min until complete dissolution. After cooling to 25° C., the pH value of the medium was 7.3±0.1. The medium was sterilized in an autoclave at 121° C. for 15 min at 20 psi, cooled to 45-50° C. and dispended into sterile Petri dishes on a leveled, horizontal surface to give uniform depth. Stock solutions of the microorganisms were incubated at 37° C. for 24 h and the turbidity of the microbial colonies were adjusted visually with sterile saline (0.85% w/v NaCl) to 0.5 McFarland standards. Within 15 min after adjusting the turbidity of the suspensions, the Petri dishes were inoculated using sterile cotton buds. The prepared antibiotic assay discs were placed on the surface of the seeded Müller-Hinton agar using flame sterilized forceps.
(§3) Stock solutions of compounds and the Cu complexed compounds were made in DMSO and were micropipetted onto the discs for 25 to 200 μg compound/disc. The discs were dried at ambient temperature for 30-50 min before placement onto the seeded Petri dishes which were then incubated at 37° C. for 24 h. Averaged inhibition zone measurements (mm) have an accuracy of ±0.5 mm; adjacent overlapping ZOI were determined using radii measurements.

[1] = test system: Staphylococcus aureus (#25923); assay: In vitro disc diffusion assay, ZOI (Example 3); format: cell-based; conditions: 6 mm diameter discs; for Zone of Inhibition: Staphylococcus aureus; for ZOI: S. aureus
Method: as §1, §2, §3

[2] = DPPH antioxidant activity test; conditions: 50 μg compound in 3 mL methanol; DPPH 150 μL 1 mM; 30 min, 25 °C; absorbance 517 nm
Method: In addition to antibacterial properties, antioxidant activity was assessed in the compounds of Formula I and II and metal complexes thereof as antioxidant compounds play an important role in remediating the toxic effects of reactive oxygen species and other free radicals. The main characteristic of an antioxidant compound is its ability to trap free radicals. Highly reactive free radicals and oxygen species are present in biological systems from a wide variety of sources. Free radical damage is known to occur during bacterial and other microbial infections. Free radicals are produced by cells of the immune system during an active infection, and generally as a result of the inflammatory processes.
DPPH (2,2-diphenyl-1-picryl-hydrazyl, 150 μL, 1 mM solution in methanol) was added to 3 mL methanol in a cuvette (0.5 in diameter) and UV-vis absorption recorded at 517 nm for baseline reading. In a cuvette, DPPH (150 μL, 1 mM solution in methanol) was added to a solution containing compound in 3 mL methanol. The reaction was allowed to stir at 25±1° C. for 30 min under exclusion of light. Absorbance was recorded at 517 nm against reference cuvette filled with methanol.

| Compound | Zone of Inhibition (Bacillus cereus; 6.25 μg Cu/disc) [mm] | Zone of Inhibition (Bacillus cereus; 12.5 μg Cu/disc) [mm] | Zone of Inhibition (Bacillus cereus; 25 μg Cu/disc) [mm] | Zone of Inhibition ([1]; 6.25 μg Cu/disc) [mm] | Zone of Inhibition ([1]; 12.5 μg Cu/disc) [mm] | Zone of Inhibition ([1]; 25 μg Cu/disc) [mm] | other results |
| --- | --- | --- | --- | --- | --- | --- | --- |
| 2-(methylthio)-N-(2-phenylmethylene)-benzenamine copper (II) bromide [ECPP-167] | 0 | 1 | 2 | 4 | 5 | 9 | – |
| 2-(methylthio)-N-(2-pyridylmethylene)-benzenamine copper (I) bromide [ECPP-141] | 0 | 0 | 2 | 0.5 | 2 | 5 | – |
| 2-(methylthio)-N-(2-pyridylmethylene)-benzenamine copper (I) iodide [ECPP-143] | – | – | – | 0 | 0 | 1 | – |
| 2-(methylthio)-N-(2-pyridylmethylene)-benzenamine copper (II) bromide [ECPP-145] | 0 | 0 | 0.5 | 0 | 1 | 4 | – |
| 2-(methylthio)-N-(2-thienylmethylene)-benzenamine copper (II) bromide [ECPP-129] | 0 | 0.5 | 9 | 5 | 7 | 10 | – |
| Nc1ccccc1SCc1ccc(CSc2ccccc2N)cc1 [Compound L1] | – | – | – | – | – | – | ZOI (Bacillus cereus; 50 μg/disc): 1.5 mm; ZOI (Bacillus cereus; 100 μg/disc): 5 mm; ZOI (Bacillus cereus; 200 μg/disc): 6.3 mm; ZOI ([1]; 50 μg/disc): 2.5 mm; ZOI ([1]; 100 μg/disc): 3.5 mm; ZOI ([1]; 200 μg/disc): 5.5 mm |
| Nc1ccccc1SCc1ccccc1CSc1ccccc1N [Compound L2] | – | – | – | – | – | – | ZOI (Bacillus cereus; 200 μg/disc): 2 mm; ZOI ([1]; 200 μg/disc): 1.5 mm |
| C(=N\c1ccccc1SCc1ccccc1)/c1ccccn1 [Compound L3] | – | – | – | – | – | – | ZOI (Bacillus cereus; 50 μg/disc): 0 mm; ZOI (Bacillus cereus; 75 μg/disc): 0.5 mm; ZOI ([1]; 50 μg/disc): 0 mm; ZOI ([1]; 75 μg/disc): 2.5 mm |
| C(=N\c1ccccc1SCc1ccccc1CSc1ccccc1/N=C/c1ccccn1)/c1ccccn1 [Compound L4] | – | – | – | – | – | – | ZOI (Bacillus cereus; 200 μg/disc): 0.5 mm; ZOI ([1]; 200 μg/disc): 0.5 mm |
| CC(=O)[O-].CC(=O)[O-].Nc1ccccc1SCc1ccccc1CSc1ccccc1N.[Cu+2] [α,α′-bis((o-aminophenyl)thio)-ortho-xylene-copper (II) acetate] | – | – | – | – | – | – | % Antiox-Act [2]: 63.5% |
| Nc1ccccc1SCc1ccccc1CSc1ccccc1N.[Cl][Cu][Cl] [α,α′-bis((o-aminophenyl)thio)-ortho-xylene-copper (II) chloride] | – | – | – | – | – | – | % Antiox-Act [2]: 56.1% |
